Tests used:
[1] = Reduction of acetyl-CoA in human hepatocytes derived from methylmalonic acidemia patient at 30 uM pretreated for 30 mins followed by 13C-isoleucine addition and measured after 1 hr by MS/MS analysis relative to control; format: functional, Hepatocyte; set-up: scale not given: the % may be the effect or the level left; details: time 90 min, 1.5 h
[2] = Reduction of CoASH in human hepatocytes derived from methylmalonic acidemia patient pretreated for 30 mins followed by 13C-isoleucine addition and measured after 1 hr by MS/MS analysis; format: functional, cell-based; details: hepatocyte
[3] = Cmax in CD1 mouse at 100 mg/kg, po; format: ADME, organism-based; set-up: route oral, dose 100 mg/kg; details: in vivo
[4] = Tmax in Sprague-Dawley rat at 200 mg/kg, po; format: ADME, organism-based; details: in vivo
[5] = AUC (0 to infinity) in CD1 mouse at 30 mg/kg, po; format: ADME, organism-based; set-up: time infinity, route oral, dose 30 mg/kg; details: in vivo
[6] = Stability in rat hepatocytes assessed as unchanged compound at 50 uM measured after 4 hrs; format: ADME, cell-based, Hepatocyte; details: read-out: Stabilty
[7] = Protein binding in Gottingen minipig plasma at 40 uM incubated for 4 hrs by equilibrium dialysis; format: ADME, cell-free, Sus scrofa domesticus; details: pig, read-out: PPB (converted)
[8] = Reduction of methylmalonyl-CoA in human hepatocytes derived from methylmalonic acidemia at 30 uM pretreated for 30 mins followed by 13C-isoleucine addition and measured after 1 hr by MS/MS analysis relative to control; format: functional, Hepatocyte; set-up: scale not given: the % may be the effect or the level left; details: time 90 min, 1.5 h
[9] = Clearance in CD1 mouse at 30 mg/kg, iv; format: ADME, organism-based; details: in vivo
OAT3 = molecular target: T1, OAT3 (Homo sapiens, UniProt Q8TCC7); assay: Inhibition of human OAT3 assessed as reduction in OAT3-mediated tenofovir transport at 14900 uM relative to control; details: not told, probe tenofovir
T1 sequence (Q8TCC7 whole entry): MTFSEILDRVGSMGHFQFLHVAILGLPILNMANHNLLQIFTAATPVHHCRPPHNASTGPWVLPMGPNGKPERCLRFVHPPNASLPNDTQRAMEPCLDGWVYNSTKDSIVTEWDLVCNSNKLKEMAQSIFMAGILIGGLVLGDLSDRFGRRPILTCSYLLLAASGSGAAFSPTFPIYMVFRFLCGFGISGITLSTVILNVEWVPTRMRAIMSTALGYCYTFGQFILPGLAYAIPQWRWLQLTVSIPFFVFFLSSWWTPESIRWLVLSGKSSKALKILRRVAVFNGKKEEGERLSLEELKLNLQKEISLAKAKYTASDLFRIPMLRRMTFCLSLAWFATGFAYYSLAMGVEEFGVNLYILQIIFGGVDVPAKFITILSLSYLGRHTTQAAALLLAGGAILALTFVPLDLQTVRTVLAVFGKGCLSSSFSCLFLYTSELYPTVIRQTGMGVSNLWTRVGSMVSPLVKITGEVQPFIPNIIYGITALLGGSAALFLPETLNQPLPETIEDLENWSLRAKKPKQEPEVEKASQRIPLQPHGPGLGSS

[10] = Drug metabolism in Gottingen minipig urine assessed as HST5040-glucuronide metabolite formation at 10 mg/kg administered as single dose by LC/MS analysis; format: ADME, organism-based, Sus scrofa domesticus; details: pig, in vivo
[11] = Tmax in CD1 mouse at 100 mg/kg, po; format: ADME, organism-based; details: in vivo
[12] = Half life in Sprague-Dawley rat at 50 mg/kg, po; format: ADME, organism-based; details: in vivo
[13] = Drug excretion in Gottingen minipig feces at 10 mg/kg, po using radiolabeled compound by quantitative whole-body autoradiography; format: ADME, organism-based, Sus scrofa domesticus; details: pig, in vivo
[14] = molecular target: T2, Solute carrier family 22 member 6 (Homo sapiens, UniProt Q4U2R8); assay: Inhibition of human OAT1 assessed as reduction in OAT1-mediated tenofovir transport
T2 sequence (Q4U2R8 whole entry): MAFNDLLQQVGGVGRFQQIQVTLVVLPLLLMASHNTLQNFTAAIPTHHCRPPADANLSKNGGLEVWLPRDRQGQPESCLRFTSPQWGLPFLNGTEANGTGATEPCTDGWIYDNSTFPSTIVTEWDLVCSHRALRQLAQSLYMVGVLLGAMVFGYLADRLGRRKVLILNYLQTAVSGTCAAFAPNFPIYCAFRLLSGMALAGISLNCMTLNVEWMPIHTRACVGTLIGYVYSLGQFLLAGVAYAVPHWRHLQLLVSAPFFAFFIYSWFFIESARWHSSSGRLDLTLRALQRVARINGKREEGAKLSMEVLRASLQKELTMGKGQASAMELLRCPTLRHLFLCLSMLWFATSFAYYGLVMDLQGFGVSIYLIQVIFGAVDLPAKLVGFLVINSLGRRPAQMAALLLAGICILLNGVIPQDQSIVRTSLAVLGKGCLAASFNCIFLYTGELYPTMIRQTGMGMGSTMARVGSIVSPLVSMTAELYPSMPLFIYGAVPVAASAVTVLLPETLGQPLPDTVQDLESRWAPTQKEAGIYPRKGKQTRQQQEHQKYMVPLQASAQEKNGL

Cytochrome P450 2B6 = molecular target: T3, Cytochrome P450 2B6 (Homo sapiens, UniProt P20813); assay: Direct inhibition of CYP2B6 in human liver microsomes using bupropion as substrate; format: ADME
T3 sequence (P20813 whole entry): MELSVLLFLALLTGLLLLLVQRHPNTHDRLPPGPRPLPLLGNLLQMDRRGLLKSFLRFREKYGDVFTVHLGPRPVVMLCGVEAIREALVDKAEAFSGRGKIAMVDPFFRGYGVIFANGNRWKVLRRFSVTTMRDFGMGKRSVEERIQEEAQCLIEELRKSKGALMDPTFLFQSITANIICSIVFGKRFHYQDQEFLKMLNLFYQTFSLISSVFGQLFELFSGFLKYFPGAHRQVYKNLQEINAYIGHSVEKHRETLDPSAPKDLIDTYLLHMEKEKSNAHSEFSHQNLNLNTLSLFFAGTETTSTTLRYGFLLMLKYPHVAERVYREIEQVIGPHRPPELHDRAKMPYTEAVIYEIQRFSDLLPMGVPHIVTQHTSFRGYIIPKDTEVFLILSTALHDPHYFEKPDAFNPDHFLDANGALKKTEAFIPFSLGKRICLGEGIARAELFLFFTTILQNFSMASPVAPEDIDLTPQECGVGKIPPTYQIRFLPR

[15] = Drug metabolism in Sprague-Dawley rat plasma assessed as HST5040-glucuronide metabolite formation at 10 mg/kg administered as single dose by LC/MS analysis; format: ADME, organism-based; details: in vivo
[16] = Reduction of methylmalonyl-CoA in human hepatocytes derived from methylmalonic acidemia pretreated for 30 mins followed by 13C-isoleucine addition and measured after 1 hr by MS/MS analysis; format: functional, cell-based; details: hepatocyte
[17] = Protein binding in human plasma at 40 uM incubated for 4 hrs by equilibrium dialysis; format: ADME, cell-free
[18] = Drug metabolism in Sprague-Dawley rat urine assessed as HST5040-glucuronide metabolite formation at 10 mg/kg administered as single dose by LC/MS analysis; format: ADME, organism-based; details: in vivo
[19] = Induction of toxicity in minipig assessed as induction of adverse effect at 300 mg/kg/day; format: organism-based, Sus scrofa domesticus; details: pig, in vivo
[20] = Half life in CD1 mouse at 300 mg/kg, po; format: ADME, organism-based; details: in vivo
Hepatocyte = assay: Cytotoxicity against rat hepatocytes assessed as reduction in cell viability using radiolabeled compound; format: cell-based
[21] = Volume of distribution of CD1 mouse at 30 mg/kg, iv; format: ADME, organism-based; details: in vivo
[22] = Drug metabolism in human hepatocytes assessed as formation of 2,2-dimethylbutanoic acid-CoA incubated for 1 hrs by MS/MS analysis; format: ADME, cell-based; details: Hepatocyte

Work on `CCC(C)(C)C(=O)O` [DIMEBUTIC ACID] yielded an Activity [1] of 13.5%, an EC50 [2] of 14.1 µM and a Cmax [3] of 118 µg/mL. The Tmax [4] was 0.417 h, the AUC(0-inf) [5] was 37500 ng·h/mL and the remaining at 4 h, 50 µM [6] was 86%. For the same compound, the fraction unbound at 4 h, 40 µM [7] was 0.55, the Activity [8] was -55% and the clearance [9] was 7.28 mL/min/kg. For the same compound, the inhibition at 14900 µM (OAT3) was 90.9%, the Drug metabolism [10] was “Metabolite_Detected” and the Tmax [11] was 0.5 h. For the same compound, the half-life [12] was 3.27 h, the Drug excretion [13] was 2.26% and the IC50 [14] was 3860 µM. The IC50 (Cytochrome P450 2B6) was over 10000 µM, the Drug metabolism [15] was “Metabolite_Detected” and the EC50 [16] was 2 µM. For the same compound, the PPB [17] was 0%, the Drug metabolism [18] was “Metabolite_Detected” and the Activity [19] was “Non-Toxic”. The half-life [20] was 1.91 h, the Activity (Hepatocyte) was “Non-Toxic” and the Vd [21] was 0.469 L/kg. For the same compound, the EC50 [22] was 5.9 µM.

— ChEMBL document CHEMBL4808180, “Identification of 2,2-Dimethylbutanoic Acid (HST5040), a Clinical Development Candidate for the Treatment of Propionic Acidemia and Methylmalonic Acidemia” (J Med Chem, 2021)
